# Literature values in patent US20050255161A1, “Method for the long term stabilization of labile compounds at room temperature in pharmaceutical preparations containing water” (priority 2004, published 2005).
# Read-outs that look alike come from different tables or passages of the source.
structure (smiles),measurement,setting,value
"CCCCC[C@H](O)/C=C/[C@H]1[C@H](O)CC(=O)[C@@H]1CCCCCCC(=O)O [prostaglandin E1, (13E)-(15S)-11alpha, 15-dihydroxy-9-oxoprost-13-enoate]",solubility in aqueous systems,low acidic medium,~10 μg's
same,solubility in aqueous systems,slightly alkaline medium,~100 μg's
